Publication PMC6265983, “Identification and Molecular Docking Study of a Novel Angiotensin-I Converting Enzyme Inhibitory Peptide Derived from Enzymatic Hydrolysates of Cyclina sinensis” (Marine Drugs, 2018)
Where two headings read alike, the source gives them in different places. Ends that are not written are not given here.

Columns and labels:
[1] = test system: ACE; details: cited from earlier work; for IC50: read-out: IC50, ACE inhibition
From the text: Marine species account for about half of the world’s total biodiversity. This diversity, together with the availability of marine resources, have driven the search for new antihypertensive agents, which could be administered as functional foods or dietary supplements. Since the first discovery of a marine-derived peptide with ACE-inhibitory activity, researchers have identified a variety of antihypertensive peptides in hydrolysates from marine species, such as Synodus macrops

[2] = target: T1, ACE (from rabbit lung) (Oryctolagus cuniculus, UniProt P12822); assay: ACE inhibitory activity (HHL substrate, HPLC of hippuric acid); assay type: biochemical; details: synthetic peptide, 37.5 °C 1 h, HPLC 228 nm, read-out: IC50 value, ACE inhibition
T1 construct: ACE (from rabbit lung); purchased Sigma Chemicals Co. (St. Louis, MO, USA); host or cells: rabbit lung tissue
T1 sequence (P12822 34-1310): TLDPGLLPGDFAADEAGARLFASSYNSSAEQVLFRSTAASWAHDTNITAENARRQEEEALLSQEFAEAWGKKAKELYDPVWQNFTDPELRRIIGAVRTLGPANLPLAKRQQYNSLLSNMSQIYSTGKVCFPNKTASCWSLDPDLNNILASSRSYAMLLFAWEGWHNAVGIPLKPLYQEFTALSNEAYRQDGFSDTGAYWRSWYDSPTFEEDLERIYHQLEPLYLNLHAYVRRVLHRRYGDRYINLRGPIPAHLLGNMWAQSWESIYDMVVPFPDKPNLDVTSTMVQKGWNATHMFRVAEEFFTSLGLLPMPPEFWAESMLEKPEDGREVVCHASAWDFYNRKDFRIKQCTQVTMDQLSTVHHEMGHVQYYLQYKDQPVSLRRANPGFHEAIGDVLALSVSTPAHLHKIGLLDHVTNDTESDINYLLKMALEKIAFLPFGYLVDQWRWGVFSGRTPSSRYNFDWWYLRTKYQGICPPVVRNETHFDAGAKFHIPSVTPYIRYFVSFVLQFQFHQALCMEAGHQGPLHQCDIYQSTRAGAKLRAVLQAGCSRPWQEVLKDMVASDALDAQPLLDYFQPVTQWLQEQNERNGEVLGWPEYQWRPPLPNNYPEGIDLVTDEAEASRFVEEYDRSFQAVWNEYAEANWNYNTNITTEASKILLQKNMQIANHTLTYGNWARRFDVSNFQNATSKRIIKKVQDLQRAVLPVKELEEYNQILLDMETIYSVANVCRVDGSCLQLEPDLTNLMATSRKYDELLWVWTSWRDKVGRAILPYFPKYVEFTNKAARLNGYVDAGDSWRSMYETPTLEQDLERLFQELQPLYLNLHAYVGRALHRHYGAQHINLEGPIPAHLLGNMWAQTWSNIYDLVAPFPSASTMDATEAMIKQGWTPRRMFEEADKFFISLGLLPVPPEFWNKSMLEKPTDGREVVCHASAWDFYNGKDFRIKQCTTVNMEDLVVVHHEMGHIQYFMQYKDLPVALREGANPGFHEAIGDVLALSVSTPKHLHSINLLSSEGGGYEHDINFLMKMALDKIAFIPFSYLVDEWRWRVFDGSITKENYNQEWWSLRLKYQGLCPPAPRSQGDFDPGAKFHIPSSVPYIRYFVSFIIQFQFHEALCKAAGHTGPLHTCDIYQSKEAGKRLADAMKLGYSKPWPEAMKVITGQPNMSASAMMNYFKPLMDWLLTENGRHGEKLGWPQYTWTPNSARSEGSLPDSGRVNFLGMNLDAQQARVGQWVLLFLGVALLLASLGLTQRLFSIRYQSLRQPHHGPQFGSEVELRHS
From the text: Trypsin (from bovine pancreas, 200 U/mg) and pepsin (from porcine gastric mucosa, 300 U/mg) were purchased from YTHX Biotechnology Co., Ltd. (Beijing, China). ACE (from rabbit lung), and the ACE synthetic substrate hippuryl-L-histidyl-L-leucine (HHL) were purchased from Sigma Chemicals Co. (St. Louis, MO, USA). Other chemicals and reagents used were of analytical grade, except acetonitrile and trifluoroacetic acid (TFA), which were HPLC grade (Sinopharm Chemical Reagent Co., Ltd, Shanghai, China).
To determine the ACE inhibitory activity, we used the method described by D.W.Cushman and Lisete Paiva, with slight modifications. Briefly, 120 μL of 5 mM HHL solution and 20 μL of 1 mg/mL sample solution were mixed thoroughly and pre-incubated for 5 min at 37.5 °C. The control was prepared by replacing the sample solution with 20 μL of 300 mM NaCl in 100 mM borate buffer (pH 8.3). Then, 10 μL of ACE (0.1 U/mL) solution was added, tubes were mixed well, and incubated at 37.5 °C for 1 h in a water bath. […] The reaction solutions were then filtered through a 0.45 μm microporous membrane and quantified by using a ZORBAX SB-C18 analytical column (4.6 mm × 250 mm, 5 μm, 25 °C) and an Agilent HPLC ChemStation, consisting of a G1311C quaternary pump VL, a G1329B standard autosampler, a G1316A column oven, and a G1314F variable wavelength detector. […] Hippuric acid (HA) was detected at 228 nm. […]

[3] = target: T1, ACE (from rabbit lung); assay: Stability of ACE inhibitory activity in simulated gastric and intestinal fluid; assay type: in vitro ADME; details: read-out: ACE inhibitory activity of the control (undigested peptide)
Experimental: Simulated gastric fluid (SGF[sp]): Concentrated hydrochloric acid (37%) was diluted to a 9.5% to 10.5% solution. Then, 800 mL of water and 10 g of pepsin were added to 16.4 mL of this diluted hydrochloric acid solution, mixed well, and the volume completed to 1000 mL with water.
Simulated intestinal fluid (SIF[sp]): 6.8 g of KH2PO4 was dissolved in 500 mL of water, and the pH was adjusted to 6.8 with 0.1 M NaOH. Then ten grams of trypsin were dissolved in an appropriate amount of water, added to the solution described above, and diluted to 1000 mL with water.
The in vitro stability of the ACE inhibitory peptide in the simulated gastrointestinal environments was determined according to the method described by Yu et al [68]. […] (0.5 mg/mL) and incubated for 2 h at 37.5 °C. In addition, the peptide solution was first incubated with SGF[sp] at 37.5 °C for 2 h, the solvent was removed by means of a centrifugal filter concentrator, and was then incubated with SIF[sp] for 2 h. The reaction mixtures were then boiled to inactivate the enzyme. After cooling to room temperature, samples were centrifuged at −4 °C (10000 rpm, 15 min) and the supernatant was adjusted to pH = 7 for the determination of the ACE inhibitory activity.

[4] = from scorpion (Hemiscorpius lepturus) venom

With “SSSKAKKMP [antihypertensive peptide from shrimps]” as the substance, how does the IC50 ([1]; peptide from shrimps) read?
The IC50 was 880 µM.

Which IC50 [2] does the source give for WPMGF [WPMGF, Trp-Pro-Met-Gly-Phe] here?
Its IC50 is 789 µM.

And the inhibition at 500 µg/mL [3]?
Its inhibition at 500 µg/mL is 51.5 ± 0.72%.

Which ACE inhibition mode [1, 4] does the source give for AFPYYGHHLG here?
The ACE inhibition mode was “competitive”.

For YLYELAR [YLYELAR], which ACE inhibition mode [1, 4] is on record?
Its ACE inhibition mode is “competitive”.

For Tyr-Gln-Lys [YQK], which ACE inhibition mode ([1]; from bovine casein) is on record?
Its ACE inhibition mode is “competitive”.

With “IGPR [antihypertensive peptide from Salmo salar]” as the substance, how does the IC50 ([1]; peptides from Salmo salar) read?
The IC50 was 430 µM.

For VVSLSIPR, which ACE inhibition mode ([1]; from pigeon pea (Cajanus cajan)) is on record?
The ACE inhibition mode was “competitive”.

For “AGPPGSDGQPGAK [antihypertensive peptide from Synodus macrops hydrolysate]”, which IC50 ([1]; peptide from Synodus macrops) is on record?
Its IC50 is 420 µM.

Which ACE inhibition mode ([1]; from Silkworm Pupa) does the source give for Arg-Tyr-Leu [RYL] here?
Its ACE inhibition mode is “competitive”.
